One assay has as its system human HLA-DR. The conditions noted are these: literature (Southwood et al. 1998); cited from earlier work.
Assay [1] is described as follows: ELISA of sera from vaccinated mice for antibodies against Gb3. The conditions noted are these: mice vaccinated subcutaneously, unconjugated antigen plus an adjuvant such as QS-21; sera tested against Gb3-ceramide. The assay is classed as in vivo, mice (C57BL/6J). The protocol:
Groups of five mice were vaccinated subcutaneously with Gb3-MUC5AC or Gb3-MUC5AC-KLH conjugate plus adjuvant with appropriate controls. Sera were tested against Gb3-ceramide by ELISA.
Groups of five mice (C57BL/6J, female, 6-8 weeks old) were vaccinated three times with GB3-ceramide conjugate (5 μg equivalent of GB3), MUC5Ac peptide (5 μg equivalent of MUC5Ac), GB3-MUC5Ac-SH conjugate (5 μg equivalent of GB3-MUC5AC), GB3-MUC5Ac-KLH conjugate (1, 5 and 10 μg equivalent of GB3-MUC5Ac), Globo H-KLH conjugate (5 μg equivalent of GloboH) and KLH protein alone (5 μg equivalent of KLH) in 100 μL phosphate buffered saline (PBS) either with an adjuvant (20 μg) or without adjuvant. Vaccines were administered subcutaneously to each mouse on weeks 1, 2, 3, and 7. Mice were bled 7 days after the third vaccination and forth vaccination.
The presence of antibodies was tested by an enzyme-linked immunosorbent assay (ELISA). ELISAs were performed to determine antibody response against GB3, Globo H and KLH. The ELISA plates were coated with either GB3 antigen or Globo H at 0.2 μg/well and 0.1 μg/well respectively in ethanol or KLH at 0.1 μg/well in carbonate buffer (pH 10). The GB3-coated and Globo H coated plates were kept overnight at room temperature to evaporate ethanol, and KLH coated plates were incubated at 4° C. overnight. […] Absorbance was measured at 405 nm.
For orientation: ELISA stands for enzyme-linked immunosorbent assay.

Turning to GLAYKFVVPGAATPY, in the assay with human HLA-DR, the “binding capacity to human HLA-DR alleles” value is “prevalently in the nanomolar range” and the “number of different alleles of human HLA-DR bound” value was “up to 9”.
In the case of globotriaosyl ceramide [Gb3-ceramide], the “antibodies against Gb3 by ELISA” value in assay [1] is “failed to produce antibodies against Gb3”.

(Values after patent US9598466B2, “Glycopeptide constructs and uses thereof” (Sloan-Kettering Institute for Cancer Research, priority 2008, dated 2017).)
